# US11104881B2, “Method for highly efficient conversion of human stem cells to lineage-specific neurons” (THE JOHNS HOPKINS UNIVERSITY, priority 2013, dated 2021)
# Entries after “also recorded” stand apart in the source; their conditions may differ.
# Tests used:
# Atoh1-induced neurons [1] = test: Current-clamp recording, negative current injection: hyperpolarization sag and rebound action potentials; type: cell-based, human; conditions: ML252 5 μM
# Atoh1-iPSCs = test: Dox-inducible Atoh1 expression measured by qRT-PCR; type: cell-based, human; conditions: Dox treatment for 2 days
# Description: Total RNA was extracted using the RNeasy Mini kit (Qiagen). Reverse transcription was performed using MuLV reverse transcriptase (Applied biosystems) and Oligo(dT) primers. qRT-PCR was performed using SYBR Green PCR Master Mix (Applied Biosystems) and IQ5 RT-PCR detection system (Bio-rad). Relative expression of each gene was normalized to the 18S rRNA. To further optimize the Atoh1-mediated differentiation strategy, we asked what is the minimum time of Atoh1 induction for successful neuronal conversion. Equal numbers of Atoh1-iPSCs received different durations of Dox treatment (1 to 5 days), after which cells were replated and allowed to mature in vitro for additional 30 days. […] In contrast, Dox treatment for 2 to 5 days successfully differentiated iPSCs into neurons expressing TUJ1 and MAP2 (FIG. 9). […] To compare the level of neurogenic signaling before and after silencing ectopic Atoh1 expression, we treated Atoh1-iPSCs with Dox for 2 days and then withdrew Dox for 3 days (FIGS. 2J and 2K).
# Atoh1-induced neurons [2] = type: cell-based, human
# Atoh1-induced DA neurons = type: cell-based, human
# [3] = system: Atoh1-induced DA neurons derived from human iPSCs; type: cell-based; conditions: 40 μM and 100 μM for 15 minutes
# Description: Neuron culture medium was changed to neurobasal medium before treatment. 6-OHDA was freshly prepared in vehicle solution (ascorbic acid (0.15%) in H2O) and quickly added to the neuron culture. Control cells were treated with vehicle solution alone. After 15 min at 37° C., the medium was removed and neurons were gently washed twice with Neurobasal Medium. 200 μl neuron culture medium (Neurobasal Medium with B27 Supplement) was added to each well and further incubated for 24 h. Cytotoxicity induced by 6-OHDA was measured using LDH Cytotoxicity Detection Kit (Roche) following the manufacturer's protocol. The percentage cytotoxicity was calculated using the following equation: Cytotoxicity (%)=(Experiment Value−Low Control)/(High Control−Low Control)×100. (Low control: culture medium; High control: total cell lysate).
# 6-hydroxydopamine (6-OHDA) is a neurotoxin widely used to induce neurotoxicity both in vivo and in vitro to model DA neuron loss in PD pathogenesis. […] Here, we tested the response of Atoh1-induced DA neurons to 6-OHDA treatment. […] Thus, Atoh1-induced DA neurons derived from human iPSCs are sensitive to 6-OHDA treatment at a concentration that selectively damages primary DA neurons isolated from substantia nigra.
# [4] = system: primary DA neurons from substantia nigra; conditions: 6-OHDA 40 μM; cited from earlier work
smiles,measurement,setting,value
CC[C@H](C(=O)Nc1ccccc1N1CCCC1)c1ccccc1 [ML252],effect on hyperpolarization sag and rebound action potentials,Atoh1-induced neurons [1],dampened; also recorded: blocked
"C[C@H]1c2cccc(O)c2C(=O)C2=C(O)[C@]3(O)C(=O)C(C(N)=O)=C(O)[C@@H](N(C)C)[C@@H]3[C@@H](O)[C@@H]21 [Dox, Doxycycline]",Atoh1 up-regulation by qRT-PCR versus control,Atoh1-iPSCs,49 fold
Nc1ccncc1 [4-AP],effect on potassium current,"Atoh1-induced neurons [2]; 4-AP 25 μM, together with TTX, voltage-clamp",significantly attenuated
"NC1=N[C@H](O)[C@H]2[C@H]3O[C@]4(O)O[C@@H]([C@@H](O)[C@@]2(N1)[C@@H]4O)[C@]3(O)CO [TTX, tetrodotoxin]",effect on train of evoked action potentials,Atoh1-induced DA neurons,suppressed; also recorded: completely blocked
same,time to recovery of action potentials after TTX washout,Atoh1-induced DA neurons,17 min
same,effect on sodium current,Atoh1-induced neurons [2],significantly attenuated
"NCCc1cc(O)c(O)cc1O [6-OHDA, 6-hydroxydopamine]",neuron death by LDH Cytotoxicity assay,[3]; LDH after 24 h,neuron death was also confirmed
same,"morphological signs of neuron death (cell condensation, neurite fragmentation)","[3]; differentiation day 36, read 24 hours after treatment",caused morphological signs of neuron death
same,DA neuron loss in rat substantia nigra neuron cultures,[4],causes selective DA neuron loss without affecting GABA neurons
